Results reported in PMC9201508, “Mechanism of CK2 Inhibition by a Ruthenium-Based Polyoxometalate” (Frontiers in Molecular Biosciences, 2022).
Entries after “also recorded” stand apart in the source; their conditions may differ.

How the values were obtained:
[1] = target: T1, full-length CK2α (FL-CK2α) (Homo sapiens, UniProt P68400); test: Radioactive kinase assay, CK2-tide substrate, full-length CK2α; assay type: biochemical; conditions: CK2-tide substrate 0.1 mM, 20 μM ATP, pH 7.5; mean ± SEM
T1 construct: made in house
T1 sequence (P68400 whole entry): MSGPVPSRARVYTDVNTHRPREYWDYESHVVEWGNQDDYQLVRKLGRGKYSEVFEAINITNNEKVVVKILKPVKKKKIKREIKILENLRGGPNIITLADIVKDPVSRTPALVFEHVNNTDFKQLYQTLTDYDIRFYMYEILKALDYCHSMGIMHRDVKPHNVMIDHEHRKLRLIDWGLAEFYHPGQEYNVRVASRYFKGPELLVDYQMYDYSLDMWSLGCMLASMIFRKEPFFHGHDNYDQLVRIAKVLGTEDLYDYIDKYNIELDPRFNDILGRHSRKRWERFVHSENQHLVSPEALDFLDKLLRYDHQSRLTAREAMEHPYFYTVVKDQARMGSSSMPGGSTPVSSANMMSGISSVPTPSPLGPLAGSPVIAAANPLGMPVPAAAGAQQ
Procedure: (§1) For IC50 (concentrations inducing 50% inhibition) analysis, recombinant tetrameric CK2 (α2β2), or C-terminal-deleted CK2α (CK2α^1–336), or full length CK2α (7.5 ng) were incubated with 0.1 mM synthetic peptide substrate RRRADDSDDDDD (CK2-tide), in a phosphorylation buffer containing 50 mM Tris-HCl pH 7.5, 10 mM MgCl2, 20 μM [γ-^33P]ATP (1,000–2,000 cpm/pmol), in a final volume of 20 μl, with increasing concentrations of the inhibitor. In the case of tetrameric CK2, 0.1 M NaCl was also present in the phosphorylation mixture. Controls were performed in the absence of any inhibitor, but with equal volume of vehicle (H2O). Reactions were performed at 30°C for 12 min and stopped by sample absorption on phospho-cellulose papers. Papers were washed three times with 75 mM phosphoric acid and counted in a scintillation counter (PerkinElmer). In the case of casein substrate (used at 0.05 mg/ml concentration), reactions were stopped by the addition of Laemmli loading buffer, samples were analyzed by 11% SDS-PAGE, and radioactive bands were detected and quantified by digital autoradiography (Cyclone plus storage phosphor system, PerkinElmer). IC50 calculation was obtained by analysis of the results with GraphPad Prism 7.0a software.

[2] = design: method as in Prudent et al., 2008; conditions: ref Prudent et al., 2008; cited from earlier work
[3] = target: T2, C-terminal-deleted CK2α (CK2α 1-336) (Homo sapiens, UniProt P68400); test: Radioactive kinase assay, CK2-tide substrate, C-terminal truncated CK2α; assay type: biochemical; conditions: CK2-tide substrate 0.1 mM, 20 μM ATP, pH 7.5, mean ± SEM
T2 construct: Human CK2α (residues 1-336) was produced as previously reported; made in house; host or cells: E. coli BL21-DE3
T2 sequence (P68400 1-336): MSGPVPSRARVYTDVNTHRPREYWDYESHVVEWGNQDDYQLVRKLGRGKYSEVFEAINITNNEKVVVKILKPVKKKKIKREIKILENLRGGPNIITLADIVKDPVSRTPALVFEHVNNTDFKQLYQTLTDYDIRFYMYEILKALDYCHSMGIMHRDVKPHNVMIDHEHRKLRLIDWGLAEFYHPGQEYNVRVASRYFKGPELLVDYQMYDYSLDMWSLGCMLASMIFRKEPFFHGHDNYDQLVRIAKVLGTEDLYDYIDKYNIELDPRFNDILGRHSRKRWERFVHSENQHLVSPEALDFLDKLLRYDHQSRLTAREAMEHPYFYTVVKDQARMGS
Procedure: (§2) Recombinant full-length CK2α and tetrameric CK2 (α2β2) [produced as in ([Venerando et al., 2013])] were kindly provided by Dr. Andrea Venerando (University of Parma, Italy). Human CK2α (residues 1-336) was produced as previously reported ([Papinutto et al., 2012]). Briefly, after expression in E. coli BL21-DE3, the protein was purified by two chromatographic steps, with heparin affinity chromatography (5 ml HiTrap Eparin HP column, GE Healthcare) and size-exclusion chromatography (HiLoad 16/60 Superdex 75 pg column, GE Healthcare). Protein eluted in 25 mM Tris, 500 mM NaCl, 1 mM DTT, pH = 8.5 was concentrated to 13.3 mg/ml, flash-frozen in liquid nitrogen and stored at −80°C.
For IC50 (concentrations inducing 50% inhibition) analysis, recombinant tetrameric CK2 (α2β2), or C-terminal-deleted CK2α (CK2α^1–336), or full length CK2α (7.5 ng) were incubated with 0.1 mM synthetic peptide substrate RRRADDSDDDDD (CK2-tide), in a phosphorylation buffer containing 50 mM Tris-HCl pH 7.5, 10 mM MgCl2, 20 μM [γ-^33P]ATP (1,000–2,000 cpm/pmol), in a final volume of 20 μl, with increasing concentrations of the inhibitor. In the case of tetrameric CK2, 0.1 M NaCl was also present in the phosphorylation mixture. Controls were performed in the absence of any inhibitor, but with equal volume of vehicle (H2O). […]

[4] = target: T3, tetrameric CK2 (α2β2) (Homo sapiens, UniProt P68400); test: Radioactive kinase assay, CK2-tide substrate, tetrameric holoenzyme; assay type: biochemical; conditions: 0.1 M NaCl present, mean ± SEM
T3 construct: made in house
T3 sequence (P68400 whole entry): as the sequence (P68400 whole entry) above
T3 sequence (P67870 2-215 partner limits assumed): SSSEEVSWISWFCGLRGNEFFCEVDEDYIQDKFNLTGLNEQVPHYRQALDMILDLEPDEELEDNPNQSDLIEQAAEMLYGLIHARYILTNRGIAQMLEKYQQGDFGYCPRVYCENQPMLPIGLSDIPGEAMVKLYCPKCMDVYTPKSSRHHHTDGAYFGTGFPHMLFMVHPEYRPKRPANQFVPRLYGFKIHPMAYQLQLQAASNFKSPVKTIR
Procedure: as §1

[5] = target: T4, CK2 (Homo sapiens, UniProt P68400); test: Radioactive kinase assay with casein as substrate; assay type: biochemical; conditions: casein 0.05 mg/ml replaced CK2-tide
T4 construct: made in house
T4 sequence (P68400 1-336): T2 sequence (P68400 1-336)
Procedure: as §1

[6] = target: T4, CK2; test: Kinetics analysis (Michaelis-Menten) with increasing CK2-tide or casein; assay type: biochemical
Procedure: as §1
For kinetics analysis, the assays were performed with increasing concentrations of CK2-tide or casein, in the phosphorylation buffer described above, but with 100 μM ATP concentration.

[7] = tested on: T5, recombinant CK2α; test: Radioactive phosphorylation assay at different pH and NaCl concentration; assay type: biochemical; conditions: 5 nM Ru4POM
T5 construct: made in house
Procedure: as §1, with “[…],” for “in a phosphorylation buffer containing 50 mM Tris-HCl pH 7.5,”, “In the case of tetrameric CK2, 0.1 M NaCl was also present in the phosphorylation mixture.” left out

[8] = tested on: endogenous CK2 in HEK-293T cells; test: Endo-cellular CK2 activity assay (Akt1 phospho-Ser129 Western blot); assay type: cell-based, human
Procedure: HEK-293T cells (human embryo kidney fibroblasts) were cultured in an atmosphere containing 5% CO2, maintained in DMEM medium (Sigma), supplemented with 10% (v/v) fetal bovine serum (FBS), 2 mM L-glutamine, 100 U/ml penicillin, and […] streptomycin. Cell treatments with Ru4POM were performed in the culture medium. When used, the cationic transfection reagents PEI (Thermo Scientific) or JetOpitmus (Polyplus-transfection) were mixed with Ru4POM and incubated for 1 h at room temperature, before adding the mix to the cells. After 24 h cells were lysed as previously described ([Zanin et al., 2012]). Protein concentration was determined by the Bradford method.
Endo-cellular CK2 activity was evaluated by assessing the phosphorylation state of the CK2 substrate Akt phospho-Ser129 (Abcam) ([Ruzzene et al., 2010]). For this purpose, equal amounts of proteins from treated cells were loaded on 11% SDS-PAGE, blotted on Immobilon-P membranes (Millipore), processed in Western blot (WB), and detected by chemiluminescence.
Quantitation of the signal was obtained by chemiluminescence detection on ImageQuant LAS 500 (GE Healthcare Life Sciences) and analysis with Carestream Molecular Imaging software (Carestream).

[9] = target: T6, CK2α (Homo sapiens, UniProt P68400); test: Isothermal titration calorimetry; assay type: binding; conditions: 25 mM Tris, 500 mM NaCl
T6 construct: Human CK2α (residues 1-336) was produced as previously reported; made in house; host or cells: E. coli BL21-DE3
T6 sequence (P68400 1-336): T2 sequence (P68400 1-336)
Procedure: as §2
Isothermal titration calorimetry (ITC) experiments were performed using a Malvern PEAQ-ITC microcalorimeter, at 25°C, with a 270 μl sample cell and a computer controlled microsyringe for titrant injections. CK2α (20–30 μM) and Ru4POM (200–400 μM) samples were in 25 mM Tris, 500 mM NaCl, pH = 8.5. After baseline stabilization, a further delay of 60 s was used before the first injection. In each individual titration, a starting Ru4POM injection of 0.4 μl in 0.8 s was followed by other 12 injections of 3 μl with a duration of 6 s each. A delay of 150 s was applied between each Ru4POM injection. Wiseman plot of integrated data was automatically obtained by software analysis (excluding the heat referred to the first 0.4 μl injection) and then it was fitted by theoretical binding curve using the one site model.

[10] = Stability monitored by UV-vis in buffered aqueous environment; assay type: physicochemical; conditions: buffered/saline aqueous environments, up to pH 8.5, over 24 h
Procedure: Na10[Ru4(H2O)4(μ-O)4(μ-OH)2(γ-SiW10O36)2], Ru4POM, was prepared following a published procedure ([Galiano et al., 2021]). Ru4POM identity was confirmed by FTIR, while its stability was monitored by UV-vis, by using a Cary 100 instrument (Varian), in buffered aqueous environment (25 mM Tris, pH 8.5) over 24 h (Supplementary Figure S6).
Suppl. Fig. 6. UV-vis spectrophotometric monitoring of Ru4POM (5µM) stability in 25 mM Tris and
500 mM NaCl (pH=8.5) over time (up to 24 h). A quartz cuvette with path length 1 cm was used.
(1 picture or pasted object on this page, not shown here)

[11] = target: T4, CK2; conditions: number of kinases; ref Battistutta et al., 2011; cited from earlier work

(^ n Bu4N)3H[γ-SiW10O36{(C5H7N2OS)(CH2)4CONH(CH2)3Si}2O] [TBA Biotin-SiW10]
IC50 [1]: 5.3 ± 0.6 nM

[P2Mo18O62]^6−
chemical stability in an aqueous environment [2]: low chemical stability

(S,S)-(^ n Bu4N)4[γ-SiW10O36{(C16H9)SO2NH(CH2)3Si}2O] [TBA (L)Trp-SiW10]
IC50 [1]: 8.5 ± 0.4 nM

Na10[Ru4(H2O)4(μ-O)4(μ-OH)2(γ-SiW10O36)2] [Ru4POM]
IC50 [1]: 3.63 ± 0.17 nM
IC50 [3]: 3.63 ± 0.09 nM
IC50 [4]: 5.57 ± 0.68 nM
IC50 [5]: 18.5 ± 1.04 nM
mode of inhibition towards substrates ([6]; CK2-tide peptide and casein): competitive inhibition
CK2-TIDE Vmax ([6]; in presence of 5 nM Ru4POM, 100 μM ATP, ± SEM): 15019 ± 1635 cpm
CASEIN Vmax ([6]; in presence of 18 nM Ru4POM, 100 μM ATP, ± SEM): 75417 ± 20117 a.u.
inhibition of CK2 activity ([7]; NaCl 0.2 M, CK2-tide): 29%
inhibition of CK2 activity ([7]; NaCl 0.5 M, CK2-tide): 22%
inhibition of CK2 activity ([7]; pH 7.5, without NaCl, CK2-tide): 75%
inhibition of CK2 activity ([7]; pH 8.5, CK2-tide): 66%
CK2 inhibition in intact cells ([8]; HEK-293T cells treated with the free compound): do not detect any CK2 inhibition
Akt1 phospho-Ser129 phosphorylation ([8]; HEK-293T, 10 μM Ru4POM, 24 h, combined with PEI or JetOptimus): reduced the phosphorylation of this site
cell permeability ([8]; inferred from lack of CK2 inhibition in treated cells): too small cell permeability
stoichiometry ([9]; pH 8.5): 1.04 ± 0.02
ΔG ([9]; pH 8.5): -7.763 ± 0.11 kcal/mol
ΔH ([9]; pH 8.5): -7.885 ± 0.339 kcal/mol
−TΔS ([9]; pH 8.5): 0.12 ± 0.581 kcal/mol
Kd ([9]; pH 8.5, 25°C, one site model, two experiments, read-out: apparent mean KD): 2090 ± 360 nM
stability in aqueous environment [10]: stability was confirmed; also recorded: stable

O=C(O)c1ccc2c(c1)nc(Nc1cccc(Cl)c1)c1ccncc12 [CX-4945, silmitasertib]
other kinases inhibited with nanomolar activity [11]: 12

[γ-SiW10O36{(C16H9)SO2NH(CH2)3Si}2O]^4− [Na (L)Trp-SiW10]
IC50 [1]: 18.2 ± 1.9 nM

[γ-SiW10O36{(C5H7N2OS)(CH2)4CONH(CH2)3Si}2O]^4− [Na Biotin-SiW10]
IC50 [1]: 16.4 ± 1.3 nM

[γ-SiW10O36{(C16H9)SO2NH(CH2)3Si}2O]^4− [Na (D)Trp-SiW10]
IC50 [1]: 12.8 ± 1.7 nM

(NH4)12[Mo36(NO)4O108(H2O)16] [Mo36POM]
IC50 [1]: > 1000 nM
